Source: PMC5449454, “Anti-Double-Stranded DNA IgG Participates in Renal Fibrosis through Suppressing the Suppressor of Cytokine Signaling 1 Signals” (Frontiers in Immunology, 2017)

Columns and labels:
anti-dsDNA IgG = assay: MALDI-TOF MS, catalysis of peptide by anti-dsDNA IgG; design: species or system murine; conditions: peptide 2 µg/ml with IgG (molar ratio = 1:5), 37°C, 30 min, triplicate, versus L-form ALW
Description: Matrix-assisted laser desorption/ionization–time of flight mass spectrometry was performed for identifying the sequences of peptide fragments. As described previously ([36]), an ABI 4800 Analyzer (AB Science, Foster City, CA, USA) was used for such analysis. The ALW (L-form or D-form) and KIR peptides (2 µg/ml) were mixed with anti-dsDNA IgG or control IgG (molar ratio = 1:5), respectively. The mixtures were incubated at 37°C for 30 min. Then, these samples were diluted in distilled water (1:100) and then mixed with the α-cyano-4-hydroxycinnamic acid matrix at a ratio of 1:1. Samples in triplicate were then loaded to the MALDI target. Mass spectrum was produced on 80 individual spectra of each spot.

mesangial cells [1] = assay: Real-time PCR, mesangial cells; format: cell-based, murine; conditions: anti-dsDNA IgG 2 µg/ml premixed with peptide 1 µg/ml, 2 days
Description: (§1) Immortal murine mesangial cells and glomerular endothelial cells (Jieqing Biotech, Wuhan, China) were cultured in RPMI 1640 medium supplemented with 10% fetal bovine serum ([8], [33]). Immortal murine proximal tubular epithelial cells (kindly provided by Dr. Cheng Pan, Wuhan University, China) were cultured in Dulbecco’s modified Eagle’s medium as described previously ([34]).
(§2) By using a HiTrap purification kit (GE Healthcare, Port Washington, NY, USA) ([8]), anti-dsDNA IgG was purified from the culture supernatants of murine WJ31 hydridoma clone (IgG2a; Jieqing Biotech). Control murine IgG (IgG2a; Jieqing Biotech) was verified by enzyme-linked immunosorbent assay (ELISA) to determine that there was no binding to DNA antigen (data not shown). Cells were starved routinely before the 2-day stimulation of anti-dsDNA IgG or control IgG (2 µg/ml). In some experiments, mesangial cells were stimulated with anti-dsDNA IgG (2 µg/ml) that was premixed with D-form (ALWPPNLHAWVP) or scrambled (PLPHNPWVLAAW) ALW peptide (1 µg/ml). The cell viability of three types of cells was measured using PrestoBlue viability reagent (Life Technologies, Carlsbad, CA, USA).
As previously described ([8]), total RNA was extracted from fresh tissues or cultured cells, followed by reverse transcription. The 7900HT Fast PCR System (Applied Biosystems, Carlsbad, CA, USA) was used for PCR, and SYBR Green Master Mixes (Invitrogen, Grand Island, NY, USA) was used as fluorescent dye. The sequences of primers (Jieqing Biotech) are listed in Table S2 in Supplementary Material.

[2] = system: SOCS1, JAK2 and STAT1 in mesangial cells; assay: SOCS1/JAK2/STAT1 proteins (IF, Western blotting), mesangial cells; format: cell-based, murine; conditions: anti-dsDNA IgG 2 µg/ml premixed with peptide 1 µg/ml, 2 days
Description: Immunofluorescence was carried out for both IgG deposition and SOCS1 expression in frozen sections. Routinely processed sections were incubated with rabbit anti-mouse SOCS1 and then fluorescein isothiocyanate (FITC)-conjugated goat anti-rabbit IgG (2 µg/ml; Southern Biotech, Birmingham, AL, USA) in order, or directly with goat anti-mouse IgG-FITC (Southern Biotech) alone. Sections were viewed under a digital fluorescent microscope (Carl Zeiss, Jena, Germany).
as §1, §2
(§3) Fresh tissues and cell cultures were extracted for lysates with the addition of protease inhibitor cocktail (Thermo Scientific, Waltham, MA, USA). […] The band intensities were quantitated by ImageJ 1.61u software (National Institutes of Health, Bethesda, MD, USA) and normalized to β-actin values accordingly. The intensities of blank groups were set as 1 (baseline), and the relative intensities were calculated in other groups.

mesangial cells [3] = assay: Cell viability (PrestoBlue), mesangial cells; format: cell-based, murine; conditions: D-form ALW 1 µg/ml, 2 days
Description: as §2
(§4) Mesangial Glomerular Tubular cells endothelial epithelial
(§5) Supplementary Figure S7. Cell viability assays of kidney cells. (A) Murine cells were cultured in vitro, and received control or anti-dsDNA IgG stimulation (2 µg/ml, 2 days). (B) Similarly, these cells were also stimulated with scrambled or D-form ALW peptide (1 µg/ml, 2 days). The cell viability was measured using PrestoBlue viability reagent. Data were from three independent experiments. Data points and error bars […]
(§6) (also on this page, place not known: µ g/ml,2 µ g/ml,2 Cell viability (%) Cell viability (%))

[4] = system: proximal tubular epithelial cells; assay: Cell viability (PrestoBlue), proximal tubular epithelial cells; format: cell-based, murine; conditions: D-form ALW 1 µg/ml, 2 days
Description: as §2, §4, §5, §6

[5] = system: SOCS1, JAK2 and STAT1 in kidneys of SCID mice; assay: Renal SOCS1/JAK2/STAT1 proteins by Western blotting, SCID mice; format: in vivo; conditions: i.v., n = 5, versus anti-dsDNA IgG alone
Excerpt: Renal biopsies were obtained from patients with LN (n = 7), who had serum positivity of anti-dsDNA IgG (Table S1 in Supplementary Material). The diagnosis of LN was made based on the histological features of renal biopsies. For normal human controls, sera and non-lesional tissues were taken from patients (n = 5) who underwent surgical nephrectomy due to renal cell carcinoma or renal rupture (Table S1 in Supplementary Material). There was no statistical difference in term of age between the LN patients and the controls (p > 0.05). […] The MRL/lpr and MRL/MpJ mice (female, 12 or 24 weeks old, n = 5 each group) as well as SCID mice (female, 8 weeks old, n = 5 each group) were bred in the animal facility of Xi’an Jiaotong University Health Science Center. Urine, sera, and renal tissues were harvested from MRL/lpr and MRL/MpJ mice. Proteinuria was quantitated by the Coomassie brilliant blue method ([32]). […]
as §3

In the case of “ALWPPNLHAWVP [D-form ALW, ALW peptide with two terminal residues A and P replaced with D-form ones]”, the “resistance to catalysis by anti-dsDNA IgG” value (anti-dsDNA IgG) was “enhanced resistance to catalysis”, the “CTGF mRNA expression level, ALW plus anti-dsDNA IgG” value (mesangial cells [1]) was “significantly reduced” and the “Fn14 mRNA expression level, ALW plus anti-dsDNA IgG” value (mesangial cells [1]) was “significantly reduced”. The “JAK2 mRNA level, ALW plus anti-dsDNA IgG” value (mesangial cells [1]) was “decreased”, the “PDGFB mRNA expression level, ALW plus anti-dsDNA IgG” value (mesangial cells [1]) was “significantly reduced” and the “SOCS1 mRNA expression level, ALW plus anti-dsDNA IgG” value (mesangial cells [1]) was “did not affect”. The “STAT1 mRNA level, ALW plus anti-dsDNA IgG” value (mesangial cells [1]) was “decreased”, the “JAK2 protein, ALW plus anti-dsDNA IgG (consistent with mRNA decrease)” value [2] was “consistent changes” and the “SOCS1 protein level, ALW plus anti-dsDNA IgG” value [2] was “increased”. The “STAT1 protein, ALW plus anti-dsDNA IgG (consistent with mRNA decrease)” value [2] was “consistent changes”, the cell viability (mesangial cells [3]) was “no changes” and the cell viability [4] was “no changes”. The “renal JAK2 protein expression level, ALW plus anti-dsDNA IgG” value [5] was “remarkable attenuation” and the “renal STAT1 protein expression level, ALW plus anti-dsDNA IgG” value [5] was “remarkable attenuation”.
